Assay results from ChEMBL document CHEMBL1201862, “PubChem BioAssay data set” (2004).
Active and inactive are the calls of the source.

Assays:
[1] = biological target: T1, Serine/threonine-protein phosphatase (Candida dubliniensis (strain CD36 / CBS 7987 / NCPF 3949 / NRRLY-17841) (Yeast), UniProt B9W6M3); assay: calcineurin pathway inhibitors in yeast reporter, dose response, S. cerevisiae, CDRE-lacZ, luminescence, secondary (AID 2388); format: functional, cell-based;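 note: yeast reporter cells carrying a calcineurin-responsive lacZ construct stimulated with calcium chloride; luminescent beta-galactosidase reporter signal in whole cells rather than isolated phosphatase activity; potency for inhibition where a drop in reporter signal means calcineurin blockade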
T1 sequence (B9W6M3 whole entry): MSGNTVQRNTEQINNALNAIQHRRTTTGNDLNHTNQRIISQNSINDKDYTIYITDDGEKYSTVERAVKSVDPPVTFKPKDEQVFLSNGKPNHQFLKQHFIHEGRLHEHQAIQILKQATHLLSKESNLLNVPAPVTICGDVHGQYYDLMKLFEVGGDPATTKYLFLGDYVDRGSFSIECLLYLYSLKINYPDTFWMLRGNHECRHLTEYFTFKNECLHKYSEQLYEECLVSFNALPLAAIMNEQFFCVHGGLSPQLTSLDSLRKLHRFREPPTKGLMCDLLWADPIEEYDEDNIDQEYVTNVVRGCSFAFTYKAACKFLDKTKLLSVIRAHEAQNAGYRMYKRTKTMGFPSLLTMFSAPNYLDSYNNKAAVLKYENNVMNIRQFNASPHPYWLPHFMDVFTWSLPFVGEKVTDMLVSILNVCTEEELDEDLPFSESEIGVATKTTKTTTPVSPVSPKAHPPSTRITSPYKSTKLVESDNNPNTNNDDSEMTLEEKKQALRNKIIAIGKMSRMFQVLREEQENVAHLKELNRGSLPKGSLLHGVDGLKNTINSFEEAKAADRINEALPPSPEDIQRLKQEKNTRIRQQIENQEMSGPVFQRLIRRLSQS

[2] = biological target: ATP-dependent molecular chaperone HSP82 (Candida albicans (strain WO-1) (Yeast), UniProt C4YTQ8); assay: loss of DOC-induced GRE-beta-galactosidase reporter signal, dose response, Hsp90 inhibitor project, S. cerevisiae, luminescence (AID 2400); format: functional, cell-based;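 note: beta-galactosidase luminescence from glucocorticoid response element reporter as proxy for Hsp90 function; inhibitor potency where signal loss means Hsp90 inhibition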
[3] = biological target: Sphingosine 1-phosphate receptor 2 (Homo sapiens, UniProt O95136); assay: Dose Response Cell Based Assay for Antagonists of the S1P2 Receptor. [Related pubchem assays: 856, 736 ]; format: functional
[4] = tested on: Streptococcus sp. 'group A'; assay: growth inhibition of control SK(-) GAS strain, dose response, counter-screen for streptokinase expression inhibitor project, luminescence, kanamycin, BacTiterGlo, confirmation (AID 1900); format: functional, organism-based
BJ [5] = assay: cytotoxicity toward BJ-TERT fibroblasts, dose response, cell-based, RAS-independent, luminescence (AID 1933); format: functional; conditions: Homo sapiens
[6] = inhibitors of SNCA 5'UTR-driven reporter translation, confirmation, H4 neuroglioma cells, luminescence (AID 1988); format: functional, cell-based
Integrin alpha-4 = Integrin alpha-4 (Homo sapiens, UniProt P13612); assay: VLA-4 integrin allosteric ligands, SAR follow-up, cell-based, LIBS antibody binding, flow cytometry (AID 488791); format: functional
BJ [7] = assay: cytotoxicity toward Ras-transformed BJeLR fibroblasts, dose response, cell-based, alamar blue fluorescence, cherrypicked samples (AID 2631); format: functional; conditions: Homo sapiens;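 note: confirmatory dose-response assay in RAS-dependent BJ fibroblasts engineered with TERT, LT and ST, with cytotoxicity read by fluorescence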
[8] = control 3'UTR Renilla luciferase suppression, dose response, counter-screen for Shn3 inhibitor project, cell-based, Clone20-Shn3RL, cherry-picked (AID 624133); format: functional
[9] = biological target: T2, Intestinal-type alkaline phosphatase (Homo sapiens, UniProt P09923); assay: human IAP activators, dose response, biochemical, luminescent, uHTS hits, set 2 (AID 488817); format: functional;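 note: potency of activators that raise enzyme activity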
[10] = biological target: T2, Intestinal-type alkaline phosphatase; assay: inhibition of human intestinal alkaline phosphatase – biochemical, dose response (AID 488876); format: functional
[11] = biological target: Megakaryocyte-associated tyrosine-protein kinase (Homo sapiens, UniProt P42679); format: functional;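 note: affinity measured as one member of a kinase panel (Navigating the Kinome) against MATK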
[12] = biological target: Protein kinase C delta type (Homo sapiens, UniProt Q05655); format: functional
[13] = biological target: Serine/threonine-protein kinase PLK4 (Homo sapiens, UniProt O00444); format: functional;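 note: PLK4 measured as one member of a kinome-wide kinase profiling panel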
[14] = biological target: Ribosomal protein S6 kinase beta-1 (Homo sapiens, UniProt P23443); format: functional;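 note: measured as one member of a kinome-wide profiling panel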
[15] = biological target: Serine/threonine-protein kinase D3 (Homo sapiens, UniProt O94806); format: functional;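 note: determined within a kinase panel screen, with PRKCN as the panel member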
[16] = biological target: Serine/threonine-protein kinase PAK 1 (Homo sapiens, UniProt Q13153); format: functional
[17] = biological target: Calcium/calmodulin-dependent protein kinase type II subunit delta (Homo sapiens, UniProt Q13557); format: functional
[18] = biological target: Fibroblast growth factor receptor 1 (Homo sapiens, UniProt P11362); format: functional
[19] = biological target: Casein kinase I isoform gamma-1 (Homo sapiens, UniProt Q9HCP0); format: functional;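 note: measured as the CSNK1G1 member of a kinome profiling panel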
[20] = biological target: Homeodomain-interacting protein kinase 2 (Homo sapiens, UniProt Q9H2X6); format: functional;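 note: measured within a kinome-wide kinase profiling panel, HIPK2 being one panel member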
[21] = biological target: High affinity nerve growth factor receptor (Homo sapiens, UniProt P04629); format: functional;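 note: NTRK1 tested as one member of a kinome-wide profiling panel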
[22] = biological target: Vascular endothelial growth factor receptor 2 (Homo sapiens, UniProt P35968); format: functional
[23] = biological target: Protein kinase C iota type (Homo sapiens, UniProt P41743); format: functional;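 note: measured within a kinome-wide kinase panel, PRKCI as panel member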
[24] = biological target: Rho-associated protein kinase 1 (Homo sapiens, UniProt Q13464); format: functional;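 note: measured within a broad kinome-wide panel profiling many kinases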
[25] = biological target: Calcium/calmodulin-dependent protein kinase type 1 (Homo sapiens, UniProt Q14012); format: functional
[26] = biological target: Homeodomain-interacting protein kinase 4 (Homo sapiens, UniProt Q8NE63); format: functional
[27] = biological target: STE20-like serine/threonine-protein kinase (Homo sapiens, UniProt Q9H2G2); format: functional
[28] = biological target: Cyclin-dependent kinase 9 (Homo sapiens, UniProt P50750); format: functional;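 note: value from the CDK9 entry of a kinome-spanning kinase panel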
[29] = biological target: BDNF/NT-3 growth factors receptor (Homo sapiens, UniProt Q16620); format: functional;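 note: NTRK2 measured as one member of a broad kinome-wide kinase profiling panel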
[30] = biological target: Receptor tyrosine-protein kinase erbB-4 (Homo sapiens, UniProt Q15303); format: functional;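 note: ERBB4 member of a kinome-wide kinase profiling panel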
[31] = biological target: Tyrosine-protein kinase receptor UFO (Homo sapiens, UniProt P30530); format: functional
[32] = biological target: Serine/threonine-protein kinase 3 (Homo sapiens, UniProt Q13188); format: functional;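 note: measured as one member of a kinome-wide kinase panel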
[33] = biological target: Bifunctional protein GlmU (Mycobacterium tuberculosis, UniProt P9WMN3); assay: Inhibitors of Mycobacterial Glucosamine-1-phosphate acetyl transferase (GlmU). Secondary screen.; design: species or system Mycobacterium tuberculosis H37Rv
HeLa = assay: HeLa cell cytotoxicity, dose response, cytotoxicity control, 24 h, cherry-picked samples (AID 504726); format: functional, cell-based; conditions: Homo sapiens;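 note: potency for cytotoxicity as loss of luminescence signal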
Troponin, cardiac muscle = Troponin, cardiac muscle (Homo sapiens, UniProt P19429+P45379+P63316); assay: inhibitors of cardiac thin filament calcium sensitivity, dose response, biochemical, fluorescence, cardiac regulated thin filaments, triplicate IC50 (AID 504742); format: protein-complex assay

T2 sequence (P09923 whole entry): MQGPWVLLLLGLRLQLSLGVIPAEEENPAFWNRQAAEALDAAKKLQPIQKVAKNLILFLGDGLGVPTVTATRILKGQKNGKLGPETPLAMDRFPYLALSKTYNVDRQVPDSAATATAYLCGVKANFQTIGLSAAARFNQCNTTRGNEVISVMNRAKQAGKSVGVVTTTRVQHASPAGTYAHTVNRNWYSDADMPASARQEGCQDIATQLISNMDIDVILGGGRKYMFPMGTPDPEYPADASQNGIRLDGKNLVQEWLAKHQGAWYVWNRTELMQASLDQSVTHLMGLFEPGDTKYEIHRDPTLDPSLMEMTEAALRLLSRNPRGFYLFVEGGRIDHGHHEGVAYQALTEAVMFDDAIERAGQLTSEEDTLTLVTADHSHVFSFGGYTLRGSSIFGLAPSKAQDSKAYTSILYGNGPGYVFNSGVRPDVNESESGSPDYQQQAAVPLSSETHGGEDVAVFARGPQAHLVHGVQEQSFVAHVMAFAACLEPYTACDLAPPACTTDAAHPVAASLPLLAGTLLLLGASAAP
Sequence of Megakaryocyte-associated tyrosine-protein kinase (P42679 whole entry): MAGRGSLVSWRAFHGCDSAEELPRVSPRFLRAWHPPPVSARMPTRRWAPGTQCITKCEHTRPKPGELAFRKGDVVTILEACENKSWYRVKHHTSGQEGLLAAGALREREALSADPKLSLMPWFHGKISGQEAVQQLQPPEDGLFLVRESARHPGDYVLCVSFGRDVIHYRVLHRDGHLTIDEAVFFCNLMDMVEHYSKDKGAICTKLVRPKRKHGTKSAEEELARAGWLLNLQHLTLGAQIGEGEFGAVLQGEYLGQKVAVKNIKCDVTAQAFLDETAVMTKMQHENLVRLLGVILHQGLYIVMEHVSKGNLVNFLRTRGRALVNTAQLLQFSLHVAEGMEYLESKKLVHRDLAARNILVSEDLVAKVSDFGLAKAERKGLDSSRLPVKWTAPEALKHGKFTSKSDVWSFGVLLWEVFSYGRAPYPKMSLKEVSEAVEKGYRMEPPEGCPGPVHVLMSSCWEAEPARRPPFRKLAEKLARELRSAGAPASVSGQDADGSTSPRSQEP
Sequence of High affinity nerve growth factor receptor (P04629 whole entry): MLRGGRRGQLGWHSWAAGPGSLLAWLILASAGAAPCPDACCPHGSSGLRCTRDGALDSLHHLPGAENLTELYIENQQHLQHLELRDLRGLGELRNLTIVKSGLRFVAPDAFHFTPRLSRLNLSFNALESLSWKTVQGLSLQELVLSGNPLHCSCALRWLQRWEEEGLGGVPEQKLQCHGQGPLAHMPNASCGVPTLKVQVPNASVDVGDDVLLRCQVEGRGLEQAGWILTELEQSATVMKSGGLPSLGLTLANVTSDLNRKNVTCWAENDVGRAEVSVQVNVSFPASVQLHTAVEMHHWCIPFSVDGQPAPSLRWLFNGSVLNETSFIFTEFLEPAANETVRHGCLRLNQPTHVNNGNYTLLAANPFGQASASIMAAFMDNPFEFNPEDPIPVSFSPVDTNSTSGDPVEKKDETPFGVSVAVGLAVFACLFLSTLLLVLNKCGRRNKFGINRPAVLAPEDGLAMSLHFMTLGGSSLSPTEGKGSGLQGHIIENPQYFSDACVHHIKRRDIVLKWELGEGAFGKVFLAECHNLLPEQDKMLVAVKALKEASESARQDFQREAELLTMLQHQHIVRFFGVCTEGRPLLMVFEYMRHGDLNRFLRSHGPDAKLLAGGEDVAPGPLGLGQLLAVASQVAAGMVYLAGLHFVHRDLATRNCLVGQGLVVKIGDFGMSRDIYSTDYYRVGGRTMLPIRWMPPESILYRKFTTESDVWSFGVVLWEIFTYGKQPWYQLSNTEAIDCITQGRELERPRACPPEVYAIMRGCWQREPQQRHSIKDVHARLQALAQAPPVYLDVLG
Sequence of Sphingosine 1-phosphate receptor 2 (O95136 whole entry): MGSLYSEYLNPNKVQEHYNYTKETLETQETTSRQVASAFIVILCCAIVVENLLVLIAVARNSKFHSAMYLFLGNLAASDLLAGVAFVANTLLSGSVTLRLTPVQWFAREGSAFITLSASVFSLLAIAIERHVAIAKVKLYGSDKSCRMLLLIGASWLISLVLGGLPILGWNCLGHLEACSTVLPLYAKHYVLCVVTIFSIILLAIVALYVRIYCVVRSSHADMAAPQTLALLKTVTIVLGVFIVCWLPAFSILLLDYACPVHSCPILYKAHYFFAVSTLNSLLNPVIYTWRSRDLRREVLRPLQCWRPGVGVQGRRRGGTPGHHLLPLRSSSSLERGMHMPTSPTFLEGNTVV
Sequence of Serine/threonine-protein kinase D3 (O94806 whole entry): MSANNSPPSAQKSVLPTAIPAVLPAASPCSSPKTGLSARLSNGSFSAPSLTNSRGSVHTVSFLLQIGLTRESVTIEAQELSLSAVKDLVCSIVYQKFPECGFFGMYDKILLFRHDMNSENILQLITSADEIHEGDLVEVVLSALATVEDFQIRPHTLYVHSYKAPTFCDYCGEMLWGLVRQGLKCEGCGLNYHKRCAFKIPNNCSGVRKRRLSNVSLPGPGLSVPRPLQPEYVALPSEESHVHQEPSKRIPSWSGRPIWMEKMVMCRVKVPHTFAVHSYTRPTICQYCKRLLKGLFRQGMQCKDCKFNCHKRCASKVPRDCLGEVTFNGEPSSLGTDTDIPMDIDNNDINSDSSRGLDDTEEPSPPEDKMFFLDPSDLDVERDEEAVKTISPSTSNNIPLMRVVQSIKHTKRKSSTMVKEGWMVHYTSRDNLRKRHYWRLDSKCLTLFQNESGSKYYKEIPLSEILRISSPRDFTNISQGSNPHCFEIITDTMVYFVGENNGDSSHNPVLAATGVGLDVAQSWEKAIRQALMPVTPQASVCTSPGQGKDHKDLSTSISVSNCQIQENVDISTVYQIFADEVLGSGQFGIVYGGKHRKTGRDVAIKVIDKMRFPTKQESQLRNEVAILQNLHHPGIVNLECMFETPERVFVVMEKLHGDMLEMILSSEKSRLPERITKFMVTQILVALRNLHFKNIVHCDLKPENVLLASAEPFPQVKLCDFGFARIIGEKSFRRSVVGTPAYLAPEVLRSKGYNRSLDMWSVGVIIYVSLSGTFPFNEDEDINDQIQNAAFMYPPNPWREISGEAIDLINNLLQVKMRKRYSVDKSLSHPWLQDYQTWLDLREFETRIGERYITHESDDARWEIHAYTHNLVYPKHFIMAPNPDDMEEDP
Sequence of Tyrosine-protein kinase receptor UFO (P30530 whole entry): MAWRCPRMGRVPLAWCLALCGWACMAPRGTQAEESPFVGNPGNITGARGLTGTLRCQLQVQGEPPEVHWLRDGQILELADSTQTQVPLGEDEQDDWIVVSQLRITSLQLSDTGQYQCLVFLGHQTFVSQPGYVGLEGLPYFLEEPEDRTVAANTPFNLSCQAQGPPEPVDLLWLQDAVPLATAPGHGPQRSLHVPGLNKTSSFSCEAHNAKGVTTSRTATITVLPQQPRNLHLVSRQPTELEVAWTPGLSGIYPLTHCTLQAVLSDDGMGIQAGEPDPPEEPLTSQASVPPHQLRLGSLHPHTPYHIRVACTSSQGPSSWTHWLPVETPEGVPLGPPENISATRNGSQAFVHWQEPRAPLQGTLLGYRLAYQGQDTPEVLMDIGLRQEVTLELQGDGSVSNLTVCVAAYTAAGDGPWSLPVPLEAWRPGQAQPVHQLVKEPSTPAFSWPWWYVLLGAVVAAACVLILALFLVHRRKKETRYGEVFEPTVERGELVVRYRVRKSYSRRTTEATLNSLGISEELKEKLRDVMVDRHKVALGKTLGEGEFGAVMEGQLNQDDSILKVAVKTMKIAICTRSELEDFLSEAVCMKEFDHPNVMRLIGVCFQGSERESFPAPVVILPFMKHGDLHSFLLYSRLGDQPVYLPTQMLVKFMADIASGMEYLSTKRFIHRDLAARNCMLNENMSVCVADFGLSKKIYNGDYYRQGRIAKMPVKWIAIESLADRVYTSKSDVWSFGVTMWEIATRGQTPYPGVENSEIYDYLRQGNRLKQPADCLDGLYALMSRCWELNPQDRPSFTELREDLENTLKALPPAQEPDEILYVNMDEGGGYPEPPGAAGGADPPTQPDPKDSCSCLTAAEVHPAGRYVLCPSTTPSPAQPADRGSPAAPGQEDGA
Sequence of Bifunctional protein GlmU (P9WMN3 whole entry): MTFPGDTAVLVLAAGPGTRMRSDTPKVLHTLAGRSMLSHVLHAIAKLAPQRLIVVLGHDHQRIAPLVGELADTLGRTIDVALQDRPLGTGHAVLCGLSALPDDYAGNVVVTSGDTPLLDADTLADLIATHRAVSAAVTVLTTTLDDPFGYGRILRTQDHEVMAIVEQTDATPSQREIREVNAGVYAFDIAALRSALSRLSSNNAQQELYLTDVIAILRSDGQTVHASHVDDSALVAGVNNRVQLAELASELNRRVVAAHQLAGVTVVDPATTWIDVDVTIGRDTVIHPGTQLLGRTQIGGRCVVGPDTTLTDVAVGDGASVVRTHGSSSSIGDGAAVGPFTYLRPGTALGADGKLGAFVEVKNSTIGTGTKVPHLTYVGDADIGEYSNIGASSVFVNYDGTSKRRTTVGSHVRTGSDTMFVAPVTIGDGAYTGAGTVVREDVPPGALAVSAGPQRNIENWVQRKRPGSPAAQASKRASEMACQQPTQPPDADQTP
Sequence of Ribosomal protein S6 kinase beta-1 (P23443 whole entry): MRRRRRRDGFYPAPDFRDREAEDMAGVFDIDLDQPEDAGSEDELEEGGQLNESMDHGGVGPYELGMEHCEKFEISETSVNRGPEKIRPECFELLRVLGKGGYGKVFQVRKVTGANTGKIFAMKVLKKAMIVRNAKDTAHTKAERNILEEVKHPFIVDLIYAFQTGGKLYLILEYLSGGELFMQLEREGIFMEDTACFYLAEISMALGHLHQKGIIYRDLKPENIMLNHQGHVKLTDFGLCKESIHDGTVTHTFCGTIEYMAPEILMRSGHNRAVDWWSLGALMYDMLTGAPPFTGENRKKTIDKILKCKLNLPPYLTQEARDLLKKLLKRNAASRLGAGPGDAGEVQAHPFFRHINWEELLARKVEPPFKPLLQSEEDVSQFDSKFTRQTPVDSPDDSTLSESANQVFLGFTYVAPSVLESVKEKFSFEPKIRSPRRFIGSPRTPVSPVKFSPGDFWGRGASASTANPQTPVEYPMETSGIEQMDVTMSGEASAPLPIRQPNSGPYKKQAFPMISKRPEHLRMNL

**Q.** With CN(C)S(=O)(=O)Oc1cccc(C(=O)Nc2ccc(Cl)c(Cl)c2)c1 as the molecule, how does the EC50 [1] read?
**A.** > 180 µM (inactive)

**Q.** And the EC50 [2]?
**A.** 18.2 µM (active)

**Q.** With COC(=O)C1CN(C#N)N(c2ccc(Cl)cc2)C12c1ccccc1-c1ccccc12 (stereo unspecified) as the molecule, how does the IC50 [3] read?
**A.** 2.79 µM (active)

**Q.** What about the EC50 [4] of the same molecule?
**A.** 4.31 µM (active)

**Q.** What about the EC50 (BJ [5]) of the same molecule?
**A.** 1.93 µM (active)

**Q.** And the EC50 [6]?
**A.** 7.38 µM (active)

**Q.** And the EC50 (Integrin alpha-4)?
**A.** 18.9 µM (active)

**Q.** What about the EC50 (BJ [7]) of the same molecule?
**A.** 0.563 µM (inconclusive)

**Q.** What about the AC50 [8] of the same molecule?
**A.** 3 µM (active)

**Q.** For O=C(NN1C(=O)CSC1=S)C(=O)NN1C(=O)CSC1=S, which EC50 [9] is on record?
**A.** 12.4 µM (active)

**Q.** What about the IC50 [10] of the same molecule?
**A.** > 100 µM (inactive)

**Q.** Which Ki [11] does the source give for Nc1noc2cccc(-c3cccc(O)c3)c12 here?
**A.** > 2 µM (inactive)

**Q.** What about the Ki [12] of the same molecule?
**A.** > 7.94 µM (inactive)

**Q.** What about the Ki [13] of the same molecule?
**A.** 2 µM (active)

**Q.** And the Ki [14]?
**A.** 0.126 µM (active)

**Q.** What about the Ki [15] of the same molecule?
**A.** > 10 µM (inactive)

**Q.** What about the Ki [16] of the same molecule?
**A.** > 10 µM (inactive)

**Q.** And the Ki [17]?
**A.** 2.51 µM (active)

**Q.** And the Ki [18]?
**A.** 15.8 µM (active)

**Q.** And the Ki [19]?
**A.** > 6.31 µM (inactive)

**Q.** What about the Ki [20] of the same molecule?
**A.** > 3.16 µM (inactive)

**Q.** What about the Ki [21] of the same molecule?
**A.** > 2.51 µM (inactive)

**Q.** What about the Ki [22] of the same molecule?
**A.** 7.94 µM (active)

**Q.** And the Ki [23]?
**A.** > 5.01 µM (inactive)

**Q.** What about the Ki [24] of the same molecule?
**A.** 1 µM (active)

**Q.** And the Ki [25]?
**A.** > 5.01 µM (inactive)

**Q.** And the Ki [26]?
**A.** > 7.94 µM (inactive)

**Q.** And the Ki [27]?
**A.** > 10 µM (inactive)

**Q.** And the Ki [28]?
**A.** 15.8 µM (active)

**Q.** And the Ki [29]?
**A.** > 20 µM (inactive)

**Q.** And the Ki [30]?
**A.** > 3.98 µM (inactive)

**Q.** What about the Ki [31] of the same molecule?
**A.** > 2 µM (inactive)

**Q.** And the Ki [32]?
**A.** 6.31 µM (active)

**Q.** With O=C1NC(=S)S/C1=C\C=C\c1ccc([N+](=O)[O-])o1 as the molecule, how does the IC50 [33] read?
**A.** 19.1 µM (active)

**Q.** And the AC50 (HeLa)?
**A.** 12.5 µM (active)

**Q.** And the IC50 (Troponin, cardiac muscle)?
**A.** 40.2 µM (inactive)
